What was measured:
Format in all cases: in vivo
[1] = system: Diabrotica balteata - larvae in the soil; assay: Critical concentration test/soil insects, Diabrotica balteata (Example Q); details: 1.25 ppm in soil; efficacy calculated from number of emerged maize plants
Procedure: To produce a suitable preparation of active compound, 1 part by weight of active compound is mixed with the stated amount of solvent, the stated amount of emulsifier is added and the concentrate is diluted with water to the desired concentration. Here, the concentration of the active compound in the preparation is almost irrelevant; only the amount by weight of active compound per volume unit of soil, which is stated in ppm (mg/l), matters. The soil is filled into 0.5 l pots and these are allowed to stand at 20° C.
Immediately after preparation, 5 maize corns are placed into each pot. After 3 days, the test insects are placed into the treated soil. After a further 7 days, the efficacy is determined. The efficacy is calculated from the number of maize plants which have emerged.

[2] = system: Diabrotica balteata larvae in soil; assay: Critical concentration test/soil insects, Diabrotica balteata; details: Diabrotica balteata, 168 h, 7 days after infestation, read-out: Kill in %
Procedure: To produce a suitable preparation of active compound, 1 part by weight of the active compound or the active compound mixture is mixed with the stated amounts of solvent and emulsifier, and the concentrate is diluted with water to the desired concentration.
The active compound preparation is mixed intimately with soil. Here, the concentration of the active compound in the preparation is almost irrelevant; only the amount by weight of active compound or active compound mixture per volume unit of soil, which is stated in ppm (mg/l), matters.
Soil is filled into 0.5 l pots and these are allowed to stand at 20° C. Immediately after preparation, 5 pre-germinated maize corns are placed into each pot. After 2 days, the test insects are placed into the treated soil. After a further 7 days, the kill in % is determined. 100% means that all test insects have been killed; 0% means that none of the test insects have been killed.

[3] = system: Pyrenophora teres; assay: Pyrenophora teres test (barley)/protective; details: single active compound
Procedure: (§1) To produce a suitable preparation of active compound, 1 part by weight of active compound or active compound combination is mixed with the stated amounts of solvent and emulsifier, and the concentrate is diluted with water to the desired concentration, or a commercial formulation of active compound or active compound combination is diluted with water to the desired concentration.
To test for protective activity, young plants are sprayed with the active compound preparation at the stated application rate. After the spray coating has dried on, the plants are sprayed with a conidia suspension of Pyrenophora teres. The plants remain in an incubation cabin at 20° C. and 100% relative atmospheric humidity for 48 hours.
The plants are then placed in a greenhouse at a temperature of approximately 20° C. and a relative atmospheric humidity of approximately 80%.
Evaluation is carried out 7 days after the inoculation. 0% means an efficacy which corresponds to that of the control, whereas an efficacy of 100% means that no infection is observed.

[4] = system: Heliothis virescens caterpillars; assay: Heliothis virescens test (soya bean shoot dip); details: concentration 0.00016 %
Procedure: To produce a suitable preparation of active compound, 1 part by weight of an active compound or an active compound combination is mixed with the stated amounts of solvent and emulsifier, and the concentrate is diluted with water to the desired concentration.
Soya bean shoots (Glycine max) are treated by being dipped into the active compound preparation of the desired concentration and are populated with Heliothis virescens caterpillars while the leaves are still moist.
After the desired period of time, the kill in % is determined. 100% means that all caterpillars have been killed; 0% means that none of the caterpillars have been killed.

[5] = system: Sphaerotheca fuliginea; assay: Sphaerotheca test (cucumber)/protective; details: 10 g/ha, single active compound, 10 days after inoculation
Procedure: as §1
To test for protective activity, young plants are sprayed with the commercial active compound preparation at the stated application rate. After the spray coating has dried on, the plants are inoculated with an aqueous spore suspension of Sphaerotheca fuliginea. The plants are then placed in a greenhouse at approximately 23° C. and a relative atmospheric humidity of approximately 70%.
Evaluation is carried out 10 days after the inoculation. 0% means an efficacy which corresponds to that of the control, whereas an efficacy of 100% means that no infection is observed.

Structure (SMILES): N#C/N=C1/SCCN1Cc1ccc(Cl)nc1 [formula (I)]
- Kill in % at active compound concentrations in ppm [1]: 1.25 ppm = 50%
- pest or weed control at 1.25 ppm ([2]; 1.25 ppm in soil): 0%
- pest or weed control at 2.5 ppm ([2]; 2.50 ppm in soil): 40%
- pest or weed control at 5 ppm ([2]; 5.00 ppm in soil): 90%
- Efficacy in % calculated/found ([3]; 18.75 g/ha): 20%
- Efficacy in % calculated/found ([3]; 62.5 g/ha, 7 days after inoculation): 0%
- Kill in % [4]: 15%
- Efficacy in % [5]: 0%

— patent US7179814B2, “Agents for controlling plant pests” (priority 1998, dated 2007)
